A melting point compilation (Tetko et al.; mined from patent text by program, amines drawn as free bases though some values may be those of a salt)

Compared with CC(C)OC(=O)CCc1nc(-c2ccc(Cl)cc2)co1, CC(C1CC1)C(O)(Cn1nc[nH]c1=S)c1ccc(Cl)cc1 (stereo unspecified) is higher in melting point: 30 to 31 °C for the first, 137 °C for the second.

First: CCOC(=O)C1CCCCC1Nc1cn[nH]c1 (stereo unspecified)
Second: CN1C(=O)CN=C(C2CCCCC2)c2ccccc21
The melting point of the first is lower: 92 to 94 °C for the first, 98 to 100 °C for the second.

First: C[C@@](O)(CO)COc1ccc(Br)cc1
Second: CCOC(=O)C(=O)c1ccc(OCC(=O)N2CCOCC2)cc1
The melting point of the first is lower: 90 °C for the first, 103 to 106 °C for the second.

First: CCSC1CCC2C3CCC4=CC(=O)C=CC4(C)C3(F)C(O)CC12C (stereo unspecified)
Second: CC(CCC=CC(=O)O)C1CCC2C3CCC4CC(O)CCC4(C)C3CC(O)C12C (stereo unspecified)
The melting point of the first is lower: 196 to 197 °C for the first, 204 to 208 °C for the second.

Compared with CC(C)[Si](C(C)C)(C(C)C)N1C=C2C=C(Br)OCC3=C2C(=C1)CC3N(C)C (stereo unspecified), Cc1ccc2c(c1)C(C(=O)Nc1ccccc1C(C)C)c1ccccc1CO2 (stereo unspecified) is higher in melting point: 119 to 121 °C for the first, 180 to 181 °C for the second.

First: Cc1cc(CNC(=O)c2cc(-c3ccc(-c4ccccc4)cc3)nn2C)ccc1OC(C)(C)C(=O)O
Second: Cc1oc(-c2ccccc2)nc1CCOc1ccc(C[C@H](NC(=O)C(F)=Cc2ccccc2)C(=O)O)cc1
The melting point of the first is lower: 90 to 95 °C for the first, 174 to 176 °C for the second.

First: CC#Cc1cn(C2CC(OC(C)=O)C(COC(C)=O)O2)c(=O)[nH]c1=O (stereo unspecified)
Second: CC(=O)OC1CCC(n2cnc3cc(Cl)c(Cl)cc32)C1OC(C)=O (stereo unspecified)
The melting point of the first is higher: 148 to 149 °C for the first, 95 to 97 °C for the second.

Compared with CCCC(C)(C(=O)N(C)C)n1cc(C)c(-c2ccccc2)n1 (stereo unspecified), CN(C)c1c(Cl)nc(-c2ccccc2)nc1Cl is lower in melting point: 90 to 92 °C for the first, 49 to 50 °C for the second.

First: O=C(N=c1sc2cc(OC(F)(F)F)ccc2n1CCO)C(F)(F)F
Second: CC(C)c1cccc2c1OC(C(F)(F)F)C(C(=O)O)=C2 (stereo unspecified)
The melting point of the first is lower: 144 °C for the first, 210 to 212 °C for the second.

Compared with Cc1c(C(=O)Nc2ccc(N3CCN(CCN(C)C)CC3)c(C#N)c2)cnn1-c1ccc(F)cc1, Oc1ccc(N2CCN(Cc3nc4ccccc4o3)CC2)cc1 is lower in melting point: 185 °C for the first, 155 to 156 °C for the second.

Compared with O=C(CCC#Cc1ccccn1)Nc1ccc(F)cc1, O=c1ccc2c(-c3ccccc3)nccc2[nH]1 is higher in melting point: 190 °C for the first, 261 to 263 °C for the second.

Compared with CCCCCCCCC=CCCCCCCCCCCCC(=O)NC, CCCCCCOc1ccc2c(CBr)c(OCCCCCC)ccc2c1CBr is higher in melting point: 48 to 49 °C for the first, 110 to 112 °C for the second.

First: Cc1cccc2nc(NC(=O)c3ccc(C(C)(C)C)cc3)cn12
Second: CC(C)(CC(C)(c1ccc(O)cc1)c1ccc(O)cc1)c1ccc(O)cc1
The melting point of the first is higher: 204 to 205 °C for the first, 150 to 151 °C for the second.

First: Nc1snc2nc(-c3ccccc3)sc12
Second: CC1N=C(c2ccccc2)c2cc(Cl)ccc2NC1=S (stereo unspecified)
The melting point of the first is lower: 176 to 179 °C for the first, 250 °C for the second.

Compared with O=C(/C=C/c1ccc(O)cc1Cl)CC(=O)/C=C/c1cc(O)ccc1[N+](=O)[O-], Cc1cc([N+](=O)[O-])ccc1NC(=O)C1=C(O)N(C)S(=O)(=O)c2sccc21 is higher in melting point: 132 to 136 °C for the first, 189 to 191 °C for the second.

Compared with Cn1cc(-c2ccccc2)c(=O)c(-c2cccc(-c3ccccc3)c2)c1, COC1(C)C(=O)C(c2ccccc2)=C1c1ccc(S(C)(=O)=O)cc1 (stereo unspecified) is lower in melting point: 186 to 190 °C for the first, 145 °C for the second.

Compared with Cc1ccccc1C(=O)n1ccc(-c2ccc(C(=O)N3Cc4cccn4Cc4ccccc43)cc2)n1, Cc1ccc(C(=O)Nc2c(NC(=O)CN3CCN(C)CC3)ccc3c2C(=O)c2ccccc2C3=O)cc1 is higher in melting point: 170 to 173 °C for the first, 214 to 215 °C for the second.

First: NS(=O)(=O)c1ccc(-c2cc(-c3nc(-c4ccc(C(F)(F)F)cc4F)cc(C(F)(F)F)n3)ccn2)s1
Second: O=C(Nc1ccc(F)cc1F)c1cc(-c2ccc(F)cc2F)ccc1O
The melting point of the first is lower: 228 °C for the first, 233 to 234 °C for the second.

First: CCN(CC)C(=O)CCC(=O)Oc1cc(-n2c(=O)cc(C(F)(F)F)n(C)c2=O)c(F)cc1Cl
Second: CCOC(=O)c1c(C)cc2c(c1C)c(=O)n(-c1ccccc1Cl)c(=O)n2CC(=O)N(CC)CC
The melting point of the first is lower: 91 to 93 °C for the first, 228 to 229 °C for the second.

First: CC12NCCCN1C(=O)c1ccccc12 (stereo unspecified)
Second: Fc1ccccc1-c1nc(N2CCNCC2)nc2ccccc12
The melting point of the first is lower: 64.5 °C for the first, 132 to 133 °C for the second.

Compared with Cc1c(O)ccc2c(C(F)(F)F)cc(=O)oc12, CCCc1c(O)ccc2c(=O)cc(CCC(=O)OCC)oc12 is higher in melting point: 114 to 116 °C for the first, 127 to 128 °C for the second.

First: COc1ccc(-c2c3c(cc4ccc5c(c24)OCO5)C(=O)OC3)cc1
Second: CS(=O)(=O)c1ccc(N2CC(O)(C(F)(F)F)N=C2c2ccc3c(c2)OCO3)cc1 (stereo unspecified)
The melting point of the first is higher: 217 to 219 °C for the first, 200 to 202 °C for the second.

First: Cn1nc(-c2cc(C=O)c(Cl)cc2F)c(Cl)c1OC(F)F
Second: Nc1cc(NS(=O)(=O)CCl)c(Cl)cc1F
The melting point of the first is lower: 95 to 98 °C for the first, 104 to 106 °C for the second.

First: CC1Cc2cc3c(cc2C(c2ccc([N+](=O)[O-])cc2)=NN1C(=O)NCCCl)OCO3 (stereo unspecified)
Second: c1cnc2[nH]cc(CN3CCN(c4ccc5c(c4)OCO5)CC3)c2c1
The melting point of the first is higher: 222 to 223 °C for the first, 196 to 199 °C for the second.

Compared with N#Cc1cccc2c1CC(=NN)c1ccc(F)cc1S2, COc1cccc(Sc2ccnc(Nc3cccc(CN)c3)n2)c1 is lower in melting point: 178 to 179 °C for the first, 120 to 121 °C for the second.

First: CNc1c2oc3ccccc3c2nn1C
Second: Cn1c(=O)[nH]c2ncccc2c1=O
The melting point of the first is lower: 154 to 156 °C for the first, 272 to 274 °C for the second.

First: COC(=O)C=C1NCC(C)OC1=O (stereo unspecified)
Second: COC(=O)COc1ccc(C=O)cc1OC
The melting point of the first is higher: 98 to 101 °C for the first, 91 to 93 °C for the second.

First: CCCCOCCOc1ccc(-c2cc(/C=C/C(=O)O)c3c(c2)CCCN3C)cc1
Second: CCCCOc1ccc(S(=O)(=O)C2(C(=O)O)CCN(Cc3ccc(F)cc3)CC2)cc1
The melting point of the first is higher: 128 to 129 °C for the first, 112 °C for the second.

Compared with Cc1cc(-n2ccnc2)c2cccc(OCc3c(Cl)ccc(S(=O)(=O)N4CCC[C@H]4C(=O)NC4CC4)c3Cl)c2n1, CNC(=S)N1CCCC(N2CCC(Nc3nc4ccccc4n3Cc3ccc(F)cc3)CC2)C1 (stereo unspecified) is higher in melting point: 108 °C for the first, 219 °C for the second.

First: CCSc1cc(C)nc(SCC)c1NC(=O)CCCCCCCSc1nc2c(C)c(Cl)cc(C(C)C)c2o1
Second: Cc1cccc(C)c1NC(=O)CCS(=O)c1cc(C(C)(C)C)c(O)c(C(C)(C)C)c1 (stereo unspecified)
The melting point of the first is lower: 82 to 84 °C for the first, 162 to 164 °C for the second.

First: CCOC(=O)N1CCN(c2ccc(OC[C@H]3CCn4cc([N+](=O)[O-])nc4O3)cc2)CC1
Second: CCC[C@H]1CC[C@H](c2ccc(OCC)c(C=O)c2)CC1
The melting point of the first is higher: 218 °C for the first, 32 °C for the second.

Compared with CC(=O)N(C)C(Cc1ccccc1N)c1sccc1C (stereo unspecified), Cc1cc(C)c2c(c1C)OC(=O)C2c1ccccc1 (stereo unspecified) is lower in melting point: 176 to 182 °C for the first, 129 to 130 °C for the second.

First: O=c1[nH]c2ccccc2n1CCCCCCCl
Second: OC(CCCl)COc1ccccc1 (stereo unspecified)
The melting point of the first is higher: 80 to 84 °C for the first, 52 to 54 °C for the second.

Compared with O=C(Nc1ccccc1)N1CC2CC(CN(Cc3ccc(Cl)cc3)C2)C1, O=C(Cn1nnc2ccccc21)Nc1ccc(-n2nc(C3CC3)cc2C2CC2)cc1 is higher in melting point: 187 °C for the first, 216 to 220 °C for the second.

First: CCOC(=O)COc1ccc(CCCOC(=O)NCC2CC2)c(Oc2ncc(C(F)(F)F)cc2Cl)c1
Second: CCCc1nn(-c2ccc(C(F)(F)F)cn2)cc1CCCOc1c(CC(=O)O)cnn1CC
The melting point of the first is lower: 113 °C for the first, 125 to 126 °C for the second.

First: CCn1cc(C(=O)O)c(=O)c2cc(F)c(S(=O)(=O)CC)nc21
Second: CCOC(=O)c1cn([C@@H](C)COS(C)(=O)=O)c2c(F)c(-c3cc(C)nc(C)c3)c(F)cc2c1=O
The melting point of the first is higher: 249 to 252 °C for the first, 180 to 183 °C for the second.

Compared with BrCCOc1ccsc1, CC(C)NCC(O)COc1cccc2c1SCCC2 (stereo unspecified) is higher in melting point: 46 °C for the first, 91 to 92 °C for the second.

First: O=C(O)c1cccc(N2CCC(N=Cc3ccccc3)=N2)c1
Second: O=C(OC(c1ccccc1)c1ccccc1)C(=C(CBr)N1CCOCC1)N1C(=O)C2N=C(Cc3ccccc3)SC21 (stereo unspecified)
The melting point of the first is higher: 185 °C for the first, 93 to 96 °C for the second.

Compared with O=C1Nc2c(cc([N+](=O)[O-])cc2[N+](=O)[O-])C1c1ncnc2nn(C3CCCC3)cc12 (stereo unspecified), CCOCCn1cc2c(C3C(=O)Nc4ccc(Cl)cc43)nc(NCCc3cccnc3)nc2n1 (stereo unspecified) is lower in melting point: greater than 300 °C for the first, 224 to 226 °C for the second.

Compared with Cn1ncc2c1-c1c(S(C)(=O)=O)sc(S(=O)(=O)Cl)c1CC2, CN1CCc2cccc3c4c(n(c23)CC1)CCC4 is higher in melting point: 81 to 82 °C for the first, 128 to 130 °C for the second.

First: CCCc1c(OCCOc2ccc3c(=O)cc(-c4ccc(C(=O)OCC)cc4)oc3c2CCC)ccc(C(C)=O)c1O
Second: COc1ccc2c(c1)c(Cc1csc(-c3ccncc3)n1)c(C)n2C(=O)c1ccc(Cl)cc1
The melting point of the first is higher: 167 to 168 °C for the first, 109 to 114 °C for the second.

Compared with CN(C)C(=O)c1nc(-c2cccnc2)nc2c1c1ccc(Cl)cc1n2C, Clc1ccc2c(-n3cncn3)ccnc2c1 is lower in melting point: 283 to 284 °C for the first, 169 to 170 °C for the second.

First: CC(C)[C@H](CC(N)=O)NC(=O)OCc1ccccc1
Second: CNc1cccc(C(=O)O)c1C
The melting point of the first is higher: 171 to 172 °C for the first, 165 to 167 °C for the second.

CCC(=CC(CNC(=O)c1ccc(NS(C)(=O)=O)nc1)=NO)C(C)[N+](=O)[O-] (stereo unspecified) and C=Cc1ccc(S(N)(=O)=O)cc1 cannot be ordered by melting point: 131 to 136 °C for the first, 130 to 132 °C for the second.

First: O=c1cnn(-c2cc(Cl)c(Cc3ccc(Cc4ccccc4)cc3)c(Cl)c2)c(=O)[nH]1
Second: O=C1NC(=O)C(Cc2ccc(OCc3nc4cccnc4n3Cc3ccc(Cl)cc3)cc2)S1 (stereo unspecified)
The melting point of the first is lower: 164 to 165 °C for the first, 211 to 213 °C for the second.

Compared with NC(=O)OC[C@@H]1[C@H](NC(=O)/C(=N\OCC(=O)O)c2csc(N)n2)C(=O)N1S(=O)(=O)O, CCOC(=O)C1=C(C)N2CCNC2=C(C(=O)OCC)C1c1ccco1 (stereo unspecified) is lower in melting point: 207 °C for the first, 164 °C for the second.

Compared with Cc1c(C)c2c(c(C)c1O)CCC(C#N)(C(C)C)O2 (stereo unspecified), CN(C)C1(c2ccccc2)CCC(C#N)(N2CCCC2)CC1 (stereo unspecified) is higher in melting point: 132 °C for the first, 136 to 142 °C for the second.

Compared with Cc1noc(CCCCCCCOc2ccc(C3=NCCO3)cc2)c1CCl, NC(=O)c1n[nH]c(-c2ccc(Cl)cc2)c1-c1ccc(S(N)(=O)=O)cc1 is higher in melting point: 103 to 104 °C for the first, 108 to 110 °C for the second.

First: CCn1nc(C#N)c(Nc2ccc(Cl)cc2[N+](=O)[O-])n1
Second: COc1cccc([N+](=O)[O-])c1N
The melting point of the first is higher: 130 to 132 °C for the first, 67 to 68 °C for the second.

First: CC1(C)SCCN(S(=O)(=O)c2ccc(-c3ccc(Br)cc3)cc2)C1C(=O)O (stereo unspecified)
Second: OC(CNCCN(c1ccccc1)c1ccccc1)COc1ccccc1 (stereo unspecified)
The melting point of the first is higher: 178 to 180 °C for the first, 95 to 96 °C for the second.

OC1(Cn2cncn2)C(Cc2ccc(F)cc2)CCC12CC2 (stereo unspecified) showed a melting point of 89 to 90 °C.
